Measured values published in paper PMC9181887, “In Vitro Antithrombotic, Hematological Toxicity, and Inhibitor Studies of Protocatechuic, Isovanillic, and p-Hydroxybenzoic Acids from Maclura tricuspidata (Carr.) Bur” (Molecules, 2022).
Several values for one entry are separate records, joined by “and”; a condition that tells them apart may be missing. Identical values can stand only once.

Legend:
[1] = tested on: fibrin clot network (Alexa Fluor 488 fibrinogen, thrombin); assay: Fibrin clot assay using a fluorescence microscope; format: biochemical, human; conditions: fluorescent fibrinogen and thrombin, 30 min
Description: Fibrin clots were prepared by mixing 2.6 μM human fibrinogen and 0.4 μM Alexa Fluor 488 fibrinogen with 0.25 U/mL of thrombin in 20 mM Tris-HCl (pH 7.4) in a glass-bottom dish and treated with compounds or 20 IU u-PA as previously described. The mixtures were incubated for 30 min at 37 °C in the dark. Fibrin clots were observed under a fluorescence microscope (Nikon, Eclipse TE 2000-U, Kyoto, Japan) and photographed. Fibrin clots pre-treated with saline (control group) or […] (positive control group). Quantitative analysis of the fluorescent fibrin clots was performed using the ImageJ 1.46 b image analysis software.

mouse blood clots = assay: In vitro antithrombotic activity assay using blood clot; conditions: vs NC group treated with saline, p < 0.01, 1 h
Description: To determine the in vitro antithrombotic activity, a blood clot assay was performed based on a previously described method. All experimental procedures were performed in accordance with the related ethical regulations of Gwangju University, and were approved by the Institutional Animal Care and Use Committee of Jeonnam Institute of Natural Resources Research, Jangheung, South Korea (2021-JINR2001). Fresh mouse blood clots (40 μg) treated with the compounds, 10–20 IU u-PA as PC 1–2, or saline as NC were incubated for 1 h. After incubation, blood clot degradation in each group was analyzed using absorbance values at a wavelength of 410 nm. The maximum absorbance wavelength was determined by measuring the absorption spectra in the wavelength range of 340–850 nm.

human plasma = assay: Coagulation assay, APTT; format: biochemical; conditions: for APTT, fold of control / activated partial thromboplastin time (APTT): 100 μg; for activated partial thromboplastin time (APTT): control 39.5 ± 1.5 s, p < 0.01
Description: A coagulation assay was performed to evaluate the prolongation potential of the compounds in blood coagulation by measuring APTT, PT, and TT, as previously described. After pretreatment of the compounds with human plasma for 10 min, APTT, PT, and TT were determined by a coagulometer (Thrombostat 1) manufactured by Behnk Elektronik, Germany.

[2] = tested on: platelet aggregation/activation in whole blood; assay: PFA-100 platelet function assay, collagen/epinephrine cartridge; format: cell-based; conditions: for Closure time: control 118.6 ± 2.1 s
Description: The effects of the compounds on platelet aggregation/activation and adherence in whole blood under conditions of high shear stress flow were evaluated using a collagen/epinephrine cartridge (Dade Behring, Marburg, Germany) and platelet function analyzer (PFA-100), as previously described. Blood samples were drawn from healthy donors using 3.8% (w/v) sodium citrate. Aliquots of whole blood were treated with different concentrations of compounds and incubated for 5 min at room temperature. Blood samples were added to a collagen/epinephrine cartridge, and the time required for occlusion of the aperture was measured using the analyzer and reported as the closure time. Saline-treated blood was used as a control.

[3] = tested on: thrombin-activated platelets; assay: Serotonin release assay; format: cell-based; conditions: p < 0.05
Description: Figure 7 Effect of PA, IVA, and 4-HA on granule secretion. Aliquots of washed platelets pre-treated with or without the compounds for 5 min were stimulated with 0.25 U/mL thrombin at 37 °C for 5 min. After stimulation, the platelets were centrifuged, and the supernatants were collected. Using these supernatants, ATP (A) or serotonin (B) release was determined according to the manufacturer’s instructions. Each value is the mean ± SD of triplicate measurements. # p < 0.01, compared to each control groups. * p < 0.05 and ** p < 0.01, compared to only thrombin-treated control groups. Thrombin, thrombin treated only; PA10-100, 10–100 μg of PA treated; IVA10-100, 10–100 μg of IVA treated; 4-HA10-100, 10–100 μg of 4-HA treated.
Aliquots of washed platelets (250 × 10^6/mL) pre-treated with the compounds for 5 min were activated with 0.25 U/mL of thrombin in the presence of 1 mM of Ca^2+ for 5 min at 37 °C, according to a previously described method, with slight modifications. After stimulation, the reaction solution was centrifuged at 4 °C and 12,000× g for 5 min, and the supernatant was collected for subsequent use. Serotonin release was determined using a serotonin enzyme-linked immunosorbent assay kit (Labor Diagnostika Nord GmbH & Co., Nordhorn, Germany), according to the manufacturer’s instructions.

Row | Structure (SMILES) | fibrin network structure / clot density [1] | blood clot degradation (mouse blood clots) | APTT, fold of control (human plasma) [fold] | activated partial thromboplastin time (APTT) (human plasma) [s] | Closure time ([2]; 10 μg) [s] | Closure time ([2]; 20 μg) [s] | Closure time, fold of control ([2]; 50 μg) [fold] | Closure time ([2]; 50 μg) | Closure time, fold of control ([2]; 100 μg) [fold] | Closure time ([2]; 100 μg) | thrombin-stimulated serotonin secretion ([3]; 100 μg) | APTT, dependence on concentration (human plasma) | thrombin-stimulated serotonin secretion ([3]; 50–100 μg)
1 | O=C(O)c1ccc(O)cc1 [4-HA, 4-hydroxybenzoic acid] | morphological changes in the network and reduced fibrin clot density | significantly degraded | 1.53 | 60.3 ± 5.6 | 121.2 ± 1.9 | 127.7 ± 3.1 | 1.13 | 134.6 s and 134.6 ± 4.5 s | 1.24 | 147.3 s and 147.3 ± 5.8 s | inhibited significantly | – | –
2 | COc1ccc(C(=O)O)cc1O [IVA, isovanillic acid] | morphological changes in the network and reduced fibrin clot density | significantly degraded | 1.70 | 67.0 ± 4.0 | 118.5 ± 1.8 | 119.7 ± 2.8 | – | 123.5 ± 2.2 s | 1.09 | 129.4 ± 3.4 s | – | increased APTT in a concentration-dependent manner | inhibited significantly
3 | O=C(O)c1ccc(O)c(O)c1 [PA, protocatechuic acid] | morphological changes in the network and reduced fibrin clot density | significantly degraded | 1.33 | 52.5 ± 4.4 | 119.9 ± 2.4 | 122.1 ± 1.4 | – | 126.3 ± 2.9 s | 1.13 | 133.7 ± 5.2 s | inhibited significantly | – | –
